Source: article PMC12790326, “Water Networks as Hydrophobic Recognition Motifs in Proteins” (Angewandte Chemie (International Ed. in English), 2025)

Tests used:
BRD4(1) = target: T1, BRD4(1) (Homo sapiens, UniProt O60885); test: TR-FRET binding assay: displacement of tetra-acetylated histone H4 peptide; conditions: for loss of efficacy/affinity with respect to 1: TR-FRET; for IC50: displacement of tetra-acetylated H4 peptide from BRD4(1), duplicate, best fit; for TR-FRET IC50 (fold change): fold change of IC50 relative to compound 1
T1 construct: encodes residues 44-168; His6 (TEV-cleavable); made in house; host or cells: Escherichia coli BL21 (DE3)
Excerpt: Supplementary Information
Figure S3: Normalized TR-FRET assay showing dose-dependently displacement of a tetra-acetylated H4 peptide from Brd4(BD1) in the presence of compounds 2-5. IC50 values corresponding to best fit are reported inside each graph. […]
simultaneously. Each dot represents the average of two independent replicas, and the error bars correspond to their standard deviation.
The BRD4(1) construct was a kind donation of Dr. Alessio Ciulli (University of Dundee, UK) and it encodes residues 44-168. The cloned his-tagged BRD4(1) was expressed in Escherichia coli BL21 (DE3).
For biophysical assays, the protein puriﬁcation procedure consisted of immobilised metal ion aﬃnity chromatography (IMAC), followed by TEV cleavage of the histidine tag and a second IMAC chromatography. For crystallisation assays, the puriﬁcation protocol involved IMAC chromatography, followed by TEV cleavage and size-exclusion chromatography for crystallography. The expression and puriﬁcation has already been described.[25]
The Time-Resolved Fluorescence Resonance Energy Transfer (TR-FRET) binding assay used to measure the disruption of the interaction of BRD4(1) with [Lys(Ac)5/8/12/16]-Histone H4 (1-21)-GGK(Biotin) (Eurogentec) with compounds 1-5, was performed according to a previously described protocol.[26] The experiments were performed in 384-well black plates (NUNC) in a buﬀer composed of 50 mM HEPES, pH 7.4, 50 mM NaCl, 400 mM KF (Sigma), 0.5 mM CHAPS (Sigma), and 0.05% BSA (Sigma) in a ﬁnal volume of 100 μL. BRD4(1) (100 nM) protein domain was mixed with 200 nM of the biotin-labelled histone peptides and incubated for 30 min at room temperature. Molecules were prepared in 250 mM HEPES, pH 7.4, 250 mM NaCl, and 20% DMSO at a single concentration to give a ﬁnal concentration of 50 μM 1% DMSO in a total well volume of 100 μL and incubated for 1 h. Molecules showing inhibition were then screened in duplicate at several serial dilutions. Inhibition (%) at 50 μM was calculated with […]
where the negative control was run without BRD4(1) and inhibitor and positive control, without inhibitor to give the bottom signal and top signal, respectively. The protein−peptide complexes at equilibrium were then detected with 2 nM Eu3+ cryptate-conjugated streptavidin (CisBio) and 10 nM anti-his6-XL665 (CisBio). Titration of a known inhibitor ((+)-JQ1) was used as the control for each experiment. IC50 values were calculated by plotting the log [competitor/inhibitor] versus the mean normalised response data from a single experiment measured in duplicate and ﬁtting it to a four-parameter equation with variable Hill slope, using the GraphPad Prism software: […]
The plates were measured in a CLARIOStar reader (BMG Labtech) using the homogeneous time-resolved ﬂuorescence module (excitation, 337 nm with 200 ﬂashes; emission, 620 and 665 nm). The 665 nm/620 nm ratios were converted to % normalised TR-FRET ratio = top ratio signal as 100% and […]
bottom ratio signal as 0% to normalise experiments performed at diﬀerent days. Dose−response […]
2. Data Collection and Structure Solution.
X-ray diffraction data were collected on beamlines I03 and I04-1 at the Diamond Light Source. Data were integrated with XDS[27] and scaled with AIMLESS[28] as part of the XIA2 and autoPROC auto-processing pipelines.[29,30] Initial refinement and map calculation was carried out with DIMPLE[31] using a ligand-free version of BRD4(1) (PDB 3MXF[25]) as starting model. Ligand restraints were generated with ACEDRG[32] and GRADE.[33] Refinement and model building was performed with REFMAC[34] and COOT,[35] respectively. Structure validation was performed with MolProbity.[36] Final models and structure factors have been deposited with PDB accession codes 9QOB and 9QNV. Data […]
1) Protein and Ligand Preparation
Ligand 1 was co-crystallized in the previous study[9] with PDB code 6ZF9. The ligand pose was extracted from the PDB and missing hydrogens were added with MOE.[37] […]

PDE4D [1] = test: PDE4D inhibition (literature IC50); assay type: biochemical; conditions: gain from the phenyl ring of 3DE (82 µM to 270 nM)
PDE4D [2] = test system: PDE4D; design: method as in PMID 15685167; conditions: with the phenyl ring; the analogue without it has 82 µM; read-out: affinity for PDE4D (IC50); cited from earlier work

Row | Compound | loss of efficacy/affinity with respect to 1 (BRD4(1)) [fold] | IC50 (BRD4(1)) [µM] | TR-FRET IC50 (fold change) (BRD4(1)) [x] | ΔΔG bind (PDE4D [1]) [kcal/mol] | IC50 (PDE4D [2]) [µM]
1 | Cc1nnc2scc(-c3ccccc3)n12 [Compound 2] | 2 | 54 | 2 | – | –
2 | OCc1nnc2scc(-c3ccccc3)n12 [Compound 4] | 2.5 | 65 | 2.5 | – | –
3 | COCc1nnc2scc(-c3ccccc3)n12 [Compound 3] | 3 | 85 | 3.3 | – | –
4 | CCOC(=O)c1c(C)nn(-c2ccccc2)c1C [Compound 3DE] | – | – | – | 3.4 | 0.27
